The results in this text go back to patent US10508111B2, “6-[5-amino-6-(2-ethoxyethoxy)-imidazo[4,5-B]pyridin-3-yl]-nicotinonitrile derivatives and their use as IRAK inhibitors” (GALAPAGOS NV, priority 2015, dated 2019).

In assay [1] the test system is IL-1β triggered IL-6 release in SW1353 cells. Kind of assay: SW1353 cellular selectivity assay, IL-1β trigger, IL-6 ELISA readout. It counts as cell-based, human. Particulars: IL-1β trigger 1 ng/mL; for IC50: Homo sapiens; for IL-1β trigger IL-6 PIN at 20 μM: percent inhibition at 20 μM compound. From the text: The aim of this assay is to evaluate the selectivity of compounds of the invention for the activated TLR/IRAK-4 pathway in an in vitro human cellular assay setting. SW1353 cells are from a chondrocytic cell line and are responsive to both the interleukin 1 (IL-1) and the TNFα cytokine triggers. Both cytokine triggers induce the expression of interleukin 6 (IL-6) and MMP13 by these cells. IL-6 and MMP13 releases are used as readouts in this assay and represent a measure for the level of inhibition of the TLR/IRAK-4 pathway by the tested compound.
SW1353 cells are cultured in DMEM supplemented with 10% FBS and 1% Penicillin/Streptomycin. Cells are incubated at 37° C. in a humidified atmosphere of 5% CO2 and subcultured twice a week. During subculturing, trypsin-EDTA is used to detach the cells, followed by a neutralization step with cell culture medium. After centrifugation (1,000 rpm during 5 min), the pellet is resuspended in cell culture medium and cells are counted using an automated cell counter (Invitrogen Countess™).
Cells are used at passage 16 and plated at a density of 15,000 cells per well in 120 μL cell culture medium in 96-well culture plates. Cells are allowed to attach during overnight incubation.
SW1353 cells are pre-incubated with test compound by addition of 15 μL of 10× concentrated compound solution for 2 h at 37° C. and 5% CO2. The compounds are tested at different concentrations and prepared by 3-fold serial dilutions from the 10 mM stock solution in DMSO followed by a 1/50 dilution step in cell culture medium. Final test concentrations in the assay start from 20 μM, with subsequent 3-fold serial dilutions with equal final DMSO concentrations of 0.2%. After the compound pre-incubation step, the SW1353 cells are triggered by addition of 15 μL of 10× concentrated IL-1f (Peprotech, 200-01B) or TNFα trigger (Peprotech, 300-01A) to the wells with final assay volume of 150 μL per well and final trigger concentration of 1 ng/mL and 10 ng/mL, respectively. Negative controls are adjusted with equal DMSO concentrations without trigger. The assay plates are then incubated in a humidified incubator at 37° C. and 5% CO2. Cell supernatants are harvested 24 h and 48 h later by transferring the cell medium into a V-bottom polypropylene 96-well plate and stored at −80° C. until ELISA readout.
The levels of secreted IL-6 in the cell supernatants are quantified in an enzyme-linked immunosorbent assay (ELISA). […] Luminescence of the converted substrate is measured with a Luminoskan™ Ascent luminometer.
All controls are measured within the linear range of the human IL-6 and MMP13 standard curve of the ELISA. […]
Background: An ELISA detects its analyte on a solid surface through an enzyme-linked reagent.

In another assay the target is T1, CDK2 (Homo sapiens, UniProt P24941).
T1 construct: purchased Carna Biosciences 04-103
Kind of assay: Kinase selectivity profiling (focused panel), radioactive filter plate assay: CDK2. Type of assay: biochemical. The note with it: Histone H1-derived peptide, 0.1 μM ATP, 60 min. As to the method: (§1) The purpose of this assay is to determine the activity and selectivity of a compound of the invention on a selected range of human kinases which may result in undesirable side-effects when inhibited (Dy & Adjei 2013; Force & Kolaja 2011).
(§2) The IC50 value for off-target kinases is determined in radioactive filter plate assays. The principle of the assays consists in the measurement of incorporated ^33P into a peptide substrate upon phosphorylation by the kinase enzyme using [γ-^33P]ATP and ATP. Unincorporated ^33P is removed by loading the samples on a filter plate (using a harvester, PerkinElmer) and 6 subsequent washing steps. Incorporated ^33P in the peptide substrate is measured by a scintillation counter (Topcount, PerkinElmer) after addition of MicroScint™-20 (PerkinElmer, 6013621) to the filter plates.
(§3) 5 μL of a water dilution series of test compound (starting from 20 μM or 6.6 μM highest concentration), from a 100% DMSO stock solution, 1/5 dilution, is added to the wells (final DMSO concentration of 1% in reaction assay). Enzyme and peptide substrate are used at optimized concentrations (cf. Table VI). The enzyme and substrate are diluted in assay buffer to a total volume of 11 μL. The reaction is started by addition of 9 μL of ATP+[γ-^33P]ATP, diluted in the same buffer as enzyme and substrate. The mixture is incubated at 30° C. The reaction is terminated by adding 25 μL of 150 mM phosphoric acid. Samples are transferred to filter plates and incorporated radioactivity is measured using a scintillation counter.
(§4) The incubation time, assay buffer composition, and concentrations of ATP, enzyme and substrate are reported in Table VI for example kinase off-target assays.
(§5) 10 μM staurosporine (1% DMSO) is used as positive control (100% inhibition); vehicle (water+1% DMSO) as negative control (0% inhibition).

In the next assay the target is T2, CDK9 (Homo sapiens, UniProt P50750).
T2 construct: purchased Millipore 14-685
T2 sequence (P50750 whole entry): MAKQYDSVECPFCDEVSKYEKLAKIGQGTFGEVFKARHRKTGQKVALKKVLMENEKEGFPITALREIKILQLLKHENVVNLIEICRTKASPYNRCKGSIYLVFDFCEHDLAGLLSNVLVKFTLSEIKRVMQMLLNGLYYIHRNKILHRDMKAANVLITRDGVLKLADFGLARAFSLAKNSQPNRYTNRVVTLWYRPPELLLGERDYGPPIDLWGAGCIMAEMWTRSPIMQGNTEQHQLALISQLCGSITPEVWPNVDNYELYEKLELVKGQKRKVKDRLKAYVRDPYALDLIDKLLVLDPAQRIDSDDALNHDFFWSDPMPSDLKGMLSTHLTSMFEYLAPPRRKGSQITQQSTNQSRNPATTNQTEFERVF
T2 sequence (O60563 whole entry partner): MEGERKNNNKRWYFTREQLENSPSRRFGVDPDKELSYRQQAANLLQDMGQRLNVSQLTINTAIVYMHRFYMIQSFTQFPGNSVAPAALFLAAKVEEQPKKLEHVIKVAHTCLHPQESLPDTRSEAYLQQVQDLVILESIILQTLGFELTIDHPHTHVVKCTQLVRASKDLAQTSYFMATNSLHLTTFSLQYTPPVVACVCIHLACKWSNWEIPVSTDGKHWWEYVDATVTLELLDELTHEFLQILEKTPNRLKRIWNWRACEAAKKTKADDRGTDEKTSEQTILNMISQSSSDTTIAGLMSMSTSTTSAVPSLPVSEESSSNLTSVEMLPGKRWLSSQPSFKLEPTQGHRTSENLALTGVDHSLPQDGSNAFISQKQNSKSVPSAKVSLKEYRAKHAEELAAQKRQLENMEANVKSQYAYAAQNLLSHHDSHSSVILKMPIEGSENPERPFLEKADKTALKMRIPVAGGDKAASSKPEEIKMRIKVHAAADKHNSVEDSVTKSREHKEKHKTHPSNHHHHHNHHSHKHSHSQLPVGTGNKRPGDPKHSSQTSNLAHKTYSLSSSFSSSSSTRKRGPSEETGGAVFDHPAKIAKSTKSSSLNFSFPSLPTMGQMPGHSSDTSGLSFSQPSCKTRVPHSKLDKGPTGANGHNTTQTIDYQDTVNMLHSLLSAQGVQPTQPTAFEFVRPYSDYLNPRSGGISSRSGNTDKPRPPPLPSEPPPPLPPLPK
In words: Kinase selectivity profiling (focused panel), radioactive filter plate assay: CDK9. Type of assay: biochemical. The note with it: PDKtide, 0.25 μM ATP, 60 min. Here is the method: as §1, §2, §3, §4, §5

Usually IC50 stands for the concentration at which inhibition is half-maximal.

For the compound `C[C@]1(O)CC[C@@H](Nc2nc3c(cc2OCCOCCO)ncn3-c2ccc(C#N)cn2)CC1` [Compound 12, 6-[6-[2-(2-hydroxyethoxy)ethoxy]-5-[((cis-1,4)-4-hydroxy-4-methylcyclohexyl)amino]imidazo[4,5-b]pyridin-3-yl]pyridine-3-carbonitrile], the figures for the half-inhibitory concentration (IC50) (in assay [1]; at CDK2; at CDK9) were 0.04 µM, 0.944 µM and 1.15 µM, respectively. In addition, the “IL-1β trigger IL-6 PIN at 20 μM” value in assay [1] was “[80%]”.

Turning to `N#Cc1ccc(-n2cnc3cc(OCCOCCO)c(NC4CCOCC4)nc32)nc1` [Compound 1, 6-[6-[2-(2-hydroxy-ethoxy)-ethoxy]-5-(tetrahydro-pyran-4-ylamino)-imidazo[4,5-b]pyridin-3-yl]-nicotinonitrile], the half-inhibitory concentration (IC50) was 0.054 µM in assay [1], above 6.67 µM on CDK2 and above 1.33 µM at CDK9. For the same compound, the “IL-1β trigger IL-6 PIN at 20 μM” value in assay [1] was “[89%]”.
